What was measured:
HUVEC monolayers = experiment: Inhibition of macromolecule (HRP) permeability of thrombin-stimulated HUVEC monolayers; type: cell-based, human; conditions: Homo sapiens, 1 h; HUVEC on Transwells, 1 μM RP73401, 10 μM Motapizone, 1 mM SNP or 100 nM ANP, 1 U/ml thrombin, HRP passage after 60 min; read-out: Inhibition of SNP- or ANP-induced permeability, −log IC50 [mol/l] (converted)
Method: Method to Assess Inhibition of Macromolecule Permeability of HUVEC Monolayers
The procedure to measure macromolecule permeability of endothelial cell monolayers followed the method described by Langeler & van Hinsbergh (1988) with modifications. Human umbilical vein endothelial cells were isolated from umbilical cords according to standard procedures (Jaffe et al. 1973) and cultured in endothelial cell basal medium (EBM) supplemented with 2% FCS, 0.5 ng/ml VEGF, 10 ng/ml bFGF, 5 ng/ml EGF, 20 ng/ml Long R3 IGF-1, 0.2 μg/ml hydrocortisone, 1 μg/ml ascorbic acid, 22.5 μg/ml heparin, 50 μg/ml gentamicin, 50 ng/ml amphotericin B (EGM2 purchased from Promocell GmbH, Heidelberg, Germany). At confluency, cells were trypsinized and replated at 73000 cells per well on 3 μm polycarbonate filter Transwell inserts (Costar GmbH, Bodenheim, Germany) precoated with 10 μg cm^2−1 Fibronectin (Sigma, Taufkirchen, Germany). HUVECs were cultured in EGM2 (100 μl in the upper wells and 600 μl in the lower wells) over four days prior the experiments and medium was changed every other day. At the day of the experiment culture medium was replaced by M199 with 1% human serum albumin. Endothelial cells were preincubated with cyclic nucleotide modifiers (the selective PDE3 inhibitor motapizone, the selective PDE4 inhibitor RP73401, the cGMP generators ANP or SNP and PDE2 inhibitors) for 15 min. HUVECs were then stimulated with Thrombin (1 U ml^−1) (Sigma, Taufkichen, Germany) and horsh radish peroxidase (5 μg/ml) (Sigma, Taufkirchen, Germany) as the macromolecule marker protein was added to the upper wells. Following 1 h incubation time Transwells were removed and the activity of horsh radish peroxidase that penetrated the endothelial cell monolayer was measured in the lower wells with the 3,3′,5,5′-tetramethylbenzidine liquid substrate system from Sigma (Taufkirchen, Germany).
In parallel, compounds according to the invention can inhibit Thrombin-induced permeability of HUVEC monolayers for horsh radish peroxidase (HRP) as a macromolecule marker. […] The concentration-dependent inhibition of HRP permeability at different concentrations was assessed from the percent inhibition in the presence and absence of the PDE2 inhibitors and in the presence of 1 μM RP73401, 10 μM Motapizone and 100 nM ANP.
Inhibition of SNP- or ANP-Induced Permeability of HUVEC Monolayers:
HUVEC cells on 3 μm polycarbonate filters (Transwells) were preincubated with 1 μM RP73401 (to block PDE4) and 10 μM Motapizone (to block PDE3), 1 mM SNP or 100 nM ANP and test sample over 15 min and then stimulated with 1 U/ml thrombin. HRP passage into the lower wells was assessed after 60 min.

melting point	Structure (SMILES)	IC50 (HUVEC monolayers) [nM]
292 to 295 °C	COc1ccc(-c2nnc3c4ccccc4c(Nc4cccc(S(=O)(=O)N5CCCC5)c4)nn23)cc1 [Compound 29, [3-(4-Methoxy-phenyl)-[1,2,4]triazolo[3,4-a]phthalazin-6-yl]-[3-(pyrrolidine-1-sulfonyl)-phenyl]-amine]	0.501 to 126
229 to 233 °C	COc1ccccc1-c1nnc2c3ccccc3c(Nc3cccc(NS(=O)(=O)N(C)C)c3)nn12 [Compound 32]	0.501 to 126
328 to 332 °C	COc1ccc(-c2nnc3c4ccccc4c(Nc4cccc(NS(=O)(=O)c5cccc(OC)c5)c4)nn23)cc1 [Compound 14, 3-Methoxy-N-{3-[3-(4-methoxy-phenyl)-[1,2,4]triazolo[3,4-a]phthalazin-6-ylamino]-phenyl}-benzenesulfonamide]	0.501 to 126
328 to 331 °C (dec.)	COc1ccc(-c2nnc3c4ccccc4c(Nc4cccc(NS(=O)(=O)c5ccc(OC)cc5)c4)nn23)cc1 [Compound 10, 4-Methoxy-N-{3-[3-(4-methoxy-phenyl)-[1,2,4]triazolo[3,4-a]phthalazin-6-ylamino]-phenyl}-benzenesulfonamide]	0.501 to 126
330 °C	COc1ccc(-c2nnc3c4ccccc4c(Nc4ccc(S(=O)(=O)N5CCOCC5)cc4)nn23)cc1 [Compound 22, [3-(4-Methoxyphenyl)-[1,2,4]triazolo[3,4-a]phthalazin-6-yl]-[4-(morpholine-4-sulfonyl)-phenyl]-amine]	0.501 to 126
252 to 256 °C	CN(C)S(=O)(=O)Nc1cccc(Nc2nn3c(-c4ccccc4F)nnc3c3ccccc23)c1 [Compound 31]	0.501 to 126
265.4 °C	COc1ccc(-c2nnc3c4ccccc4c(Nc4cccc(S(=O)(=O)N5CCOCC5)c4)nn23)cc1 [Compound 25, [3-(4-Methoxyphenyl)-[1,2,4]triazolo[3,4-a]phthalazin-6-yl]-[3-(morpholine-4-sulfonyl)-phenyl]-amine]	0.501 to 126
289 to 292 °C	COc1ccc(-c2nnc3c4ccccc4c(Nc4cccc(NS(=O)(=O)Cc5ccccc5)c4)nn23)cc1 [Compound 15, N-{3-[3-(4-Methoxy-phenyl)-[1,2,4]triazolo[3,4-a]phthalazin-6-ylamino]-phenyl}-1-phenyl-methanesulfonamide]	0.501 to 126
318 to 320 °C	COc1ccc(-c2nnc3c4ccccc4c(Nc4ccc(NS(C)(=O)=O)cc4)nn23)cc1 [Compound 3, N-{4-[3-(4-Methoxy-phenyl)-[1,2,4]triazolo[3,4-a]phthalazin-6-ylamino]-phenyl}-methanesulfonamide]	0.501 to 126
290 to 293 °C	CN(C)S(=O)(=O)c1cccc(Nc2nn3c(-c4ccc(Br)cc4)nnc3c3ccccc23)c1 [Compound 28, [3-(N,N-dimethylsulfamoyl)-phenyl]-[3-(4-bromo-phenyl)-[1,2,4]triazolo[3,4-a]phthalazin-6-yl]-amine]	0.501 to 126
351 to 353 °C	COc1ccc(-c2nnc3c4ccccc4c(Nc4ccc(NS(=O)(=O)c5cccs5)cc4)nn23)cc1 [Compound 1, Thiophene-2-sulfonic acid {4-[3-(4-methoxy-phenyl)-[1,2,4]triazolo[3,4-a]phthalazin-6-ylamino]-phenyl}-amide]	0.501 to 126
327 to 331 °C	COc1ccc(-c2nnc3c4ccccc4c(Nc4cccc(NS(=O)(=O)c5cccs5)c4)nn23)cc1 [Compound 17, Thiophene-2-sulfonic acid {3-[3-(4-methoxy-phenyl)-[1,2,4]triazolo[3,4-a]phthalazin-6-ylamino]-phenyl}-amide]	0.501 to 126
275 to 280 °C	COc1ccc(-c2nnc3c4ccccc4c(Nc4cccc(S(=O)(=O)N5CCCCC5)c4)nn23)cc1 [Compound 30, [3-(4-Methoxy-phenyl)-[1,2,4]triazolo[3,4-a]phthalazin-6-yl]-[3-(piperidine-1-sulfonyl)-phenyl]-amine]	0.501 to 126
336 to 346 °C (dec.)	COc1ccc(-c2nnc3c4ccccc4c(Nc4cccc(NS(=O)(=O)c5ccc(C)cc5)c4)nn23)cc1 [Compound 9, N-{3-[3-(4-Methoxy-phenyl)-[1,2,4]triazolo[3,4-a]phthalazin-6-ylamino]-phenyl}-4-methyl-benzenesulfonamide]	0.501 to 126
264 °C (dec.)	COc1ccc(-c2nnc3c4ccccc4c(Nc4cccc(NS(=O)(=O)N5CCOCC5)c4)nn23)cc1 [Compound 34, Morpholine-4-sulfonic acid {3-[3-(4-methoxy-phenyl)-[1,2,4]triazolo[3,4-a]phthalazin-6-ylamino]-phenyl}-amide]	0.501 to 126
304 to 306 °C	COc1ccc(-c2nnc3c4ccccc4c(Nc4ccc(NS(=O)(=O)Cc5ccccc5)cc4)nn23)cc1 [Compound 4, N-{4-[3-(4-Methoxy-phenyl)-[1,2,4]triazolo[3,4-a]phthalazin-6-ylamino]-phenyl}-1-phenyl-methanesulfonamide]	0.501 to 126
266 to 270 °C	COc1ccc(-c2nnc3c4ccccc4c(Nc4ccc(NS(=O)(=O)N5CCOCC5)cc4)nn23)cc1 [Compound 6, Morpholine-4-sulfonic acid {4-[3-(4-methoxy-phenyl)-[1,2,4]triazolo[3,4-a]phthalazin-6-ylamino]-phenyl}-amide]	0.501 to 126
235 to 239 °C	CN(C)c1ccccc1-c1nnc2c3ccccc3c(Nc3cccc(NS(=O)(=O)N(C)C)c3)nn12 [Compound 26]	0.501 to 126

Reference: US8106047B2, “Triazolophthalazines” (NYCOMED GmbH, priority 2005, dated 2012)
